In patent publication US6355799B1, “Substituted benzene compounds, process for their preparation, and herbicidal and defoliant compositions containing them” (ISK Americas Incorporated, priority 1997, dated 2002):

Key:
Format in all cases: in vivo
[1] = test system: redroot pigweed (Amaranthus retroflexus, AMARE); assay: Pre-emerge test, greenhouse herbicide activity screening; details: pre-emerge, rated 14 days after application, 0 = no damage, 100 = complete death
How it was run: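 Visual ratings on a 0-100 scale (0 no damage, 100 all plants dead) were taken at 14 days after treatment. Rates of 15-1000 g ai/ha in acetone, 187 l/ha, were sprayed onto soil one day after planting (pre-emerge) or onto 2-3 leaf plants with 0.25% v/v surfactant (post-emerge).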

[2] = test system: common ragweed (Ambrosia artemisizfolia L., AMBEL); assay: as above; details: pre-emerge, rated 14 days after application, 0 = no damage, 100 = complete death
How it was run: (§1)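 Plants grown in 10 cm pots of sandy loam mix received acetone-dissolved compounds through a moving flat-fan nozzle. Doses ranged from 15 to 1000 g ai/ha. Pre-emerge pots were seeded one day earlier, post-emerge pots 8–21 days earlier. Fourteen days on, each pot was graded 0–100 for damage.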

[3] = test system: green foxtail (Setaria viridis, SETVI); assay: as above; details: pre-emerge, rated 14 days after application, 0 = no damage, 100 = complete death
How it was run: as §1

[4] = test system: sicklepod (Cassia obtusifolia, CASOB); assay: as above; details: pre-emerge, rated 14 days after application, 0 = no damage, 100 = complete death
How it was run: as §1

[5] = test system: johnsongrass (Sorghum halepense, SORHA); assay: as above; details: pre-emerge, rated 14 days after application, 0 = no damage, 100 = complete death
How it was run: as §1

[6] = test system: lambsquarters (Chenopodium album, CHEAL); assay: as above; details: pre-emerge, rated 14 days after application, 0 = no damage, 100 = complete death
How it was run: as §1

[7] = test system: ivyleaf morningglory (Ipomoea hederacea, IPOHE); assay: as above; details: pre-emerge, rated 14 days after application, 0 = no damage, 100 = complete death
How it was run: as §1

[8] = test system: barnyardgrass (Echinochloa crus-galli, ECHCG); assay: as above; details: pre-emerge, rated 14 days after application, 0 = no damage, 100 = complete death
How it was run: as §1

[9] = test system: large crabgrass (Digitaria sanguinalis, DIGSA); assay: as above; details: pre-emerge, rated 14 days after application, 0 = no damage, 100 = complete death
How it was run: as §1

[10] = test system: velvetleaf (Abutilon theophrasti, ABUTH); assay: as above; details: pre-emerge, rated 14 days after application, 0 = no damage, 100 = complete death
How it was run: as §1

[11] = test system: redroot pigweed (Amaranthus retroflexus, AMARE); assay: Post-emerge test, greenhouse herbicide activity screening; details: phytotoxicity rating 0-100 (0 no damage, 100 complete death), 14 days after application
How it was run: as §1

[12] = test system: common ragweed (Ambrosia artemisizfolia L., AMBEL); assay: as above; details: phytotoxicity rating 0-100 (0 no damage, 100 complete death), 14 days after application
How it was run: as §1

[13] = test system: green foxtail (Setaria viridis, SETVI); assay: as above; details: phytotoxicity rating 0-100 (0 no damage, 100 complete death), 14 days after application
How it was run: as §1

[14] = test system: sicklepod (Cassia obtusifolia, CASOB); assay: as above; details: phytotoxicity rating 0-100 (0 no damage, 100 complete death), 14 days after application
How it was run: as §1

[15] = test system: johnsongrass (Sorghum halepense, SORHA); assay: as above; details: phytotoxicity rating 0-100 (0 no damage, 100 complete death), 14 days after application
How it was run: as §1

[16] = test system: lambsquarters (Chenopodium album, CHEAL); assay: as above; details: phytotoxicity rating 0-100 (0 no damage, 100 complete death), 14 days after application
How it was run: as §1

[17] = test system: ivyleaf morningglory (Ipomoea hederacea, IPOHE); assay: as above; details: phytotoxicity rating 0-100 (0 no damage, 100 complete death), 14 days after application
How it was run: as §1

[18] = test system: barnyardgrass (Echinochloa crus-galli, ECHCG); assay: as above; details: phytotoxicity rating 0-100 (0 no damage, 100 complete death), 14 days after application
How it was run: as §1

[19] = test system: large crabgrass (Digitaria sanguinalis, DIGSA); assay: as above; details: phytotoxicity rating 0-100 (0 no damage, 100 complete death), 14 days after application
How it was run: as §1

[20] = test system: velvetleaf (Abutilon theophrasti, ABUTH); assay: as above; details: phytotoxicity rating 0-100 (0 no damage, 100 complete death), 14 days after application
How it was run: as §1

[21] = test system: field corn (Zea mays L., var. Dekalb 535, CORN); assay: Post-emerge test, crop safety; details: phytotoxicity rating 0-100 (0 no damage, 100 complete death), 14 days after application
How it was run: (§2)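 Each test used a mechanized track sprayer delivering 187 l/ha of acetone solution at 15–1000 g ai/ha. Post-emerge foliage at 2–3 leaves was treated with added 0.25% v/v non-ionic surfactant and bottom-watered only. Injury was assessed on day 14, where 100 means total kill.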

[22] = test system: upland rice (Oryza sp., var. Tebonnet, RICE); assay: Post-emerge test, crop safety; details: phytotoxicity rating 0-100 (0 no damage, 100 complete death), 14 days after application
How it was run: as §2

[23] = test system: field corn (Zea mays L., var. Dekalb 535, CORN); assay: Pre-emerge test, crop safety; details: pre-emerge, rated 14 days after application, 0 = no damage, 100 = complete death
How it was run: (§3)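 Compounds in acetone were track-sprayed at 187 l/ha, 15–1000 g ai/ha, onto sandy loam pots. Pre-emerge seeds were sown one day before spraying, with surface watering afterwards. Post-emerge plants were at the 2–3 leaf stage and sprayed with 0.25% v/v non-ionic surfactant. Injury was rated 0–100 at 14 days.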

[24] = test system: upland rice (Oryza sp., var. Tebonnet, RICE); assay: Pre-emerge test, crop safety; details: pre-emerge, rated 14 days after application, 0 = no damage, 100 = complete death
How it was run: as §3

SMILES: COc1c(Cl)cc(F)c(-n2c(=O)cc(C(F)(F)F)n(C)c2=O)c1NC(=O)C(F)(F)F [2-10]
- Pre-emerge Herbicidal Activity AMARE (phytotoxicity rating, scale 0-100) ([1]; 63 g ai/ha): 50
- Pre-emerge Herbicidal Activity AMARE (phytotoxicity rating, scale 0-100) ([1]; 250 g ai/ha): 100
- Pre-emerge Herbicidal Activity AMBEL (phytotoxicity rating, scale 0-100) ([2]; 63 g ai/ha): 100
- Pre-emerge Herbicidal Activity AMBEL (phytotoxicity rating, scale 0-100) ([2]; 250 g ai/ha): 100
- Pre-emerge Herbicidal Activity SETVI (phytotoxicity rating, scale 0-100) ([3]; 63 g ai/ha): 40
- Pre-emerge Herbicidal Activity SETVI (phytotoxicity rating, scale 0-100) ([3]; 250 g ai/ha): 100
- Pre-emerge Herbicidal Activity CASOB (phytotoxicity rating, scale 0-100) ([4]; 63 g ai/ha): 50
- Pre-emerge Herbicidal Activity CASOB (phytotoxicity rating, scale 0-100) ([4]; 250 g ai/ha): 90
- Pre-emerge Herbicidal Activity SORHA (phytotoxicity rating, scale 0-100) ([5]; 63 g ai/ha): 0
- Pre-emerge Herbicidal Activity SORHA (phytotoxicity rating, scale 0-100) ([5]; 250 g ai/ha): 80
- Pre-emerge Herbicidal Activity CHEAL (phytotoxicity rating, scale 0-100) ([6]; 63 g ai/ha): 100
- Pre-emerge Herbicidal Activity CHEAL (phytotoxicity rating, scale 0-100) ([6]; 250 g ai/ha): 100
- Pre-emerge Herbicidal Activity IPOHE (phytotoxicity rating, scale 0-100) ([7]; 63 g ai/ha): 60
- Pre-emerge Herbicidal Activity IPOHE (phytotoxicity rating, scale 0-100) ([7]; 250 g ai/ha): 100
- Pre-emerge Herbicidal Activity ECHCG (phytotoxicity rating, scale 0-100) ([8]; 63 g ai/ha): 0
- Pre-emerge Herbicidal Activity ECHCG (phytotoxicity rating, scale 0-100) ([8]; 250 g ai/ha): 95
- Pre-emerge Herbicidal Activity DIGSA (phytotoxicity rating, scale 0-100) ([9]; 63 g ai/ha): 90
- Pre-emerge Herbicidal Activity DIGSA (phytotoxicity rating, scale 0-100) ([9]; 250 g ai/ha): 95
- Pre-emerge Herbicidal Activity ABUTH (phytotoxicity rating, scale 0-100) ([10]; 63 g ai/ha): 100
- Pre-emerge Herbicidal Activity ABUTH (phytotoxicity rating, scale 0-100) ([10]; 250 g ai/ha): 100
- Post-emerge Herbicidal Activity AMARE ([11]; 63 g ai/ha): 0
- Post-emerge Herbicidal Activity AMARE ([11]; 250 g ai/ha): 30
- Post-emerge Herbicidal Activity AMBEL ([12]; 63 g ai/ha): 0
- Post-emerge Herbicidal Activity AMBEL ([12]; 250 g ai/ha): 50
- Post-emerge Herbicidal Activity SETVI ([13]; 63 g ai/ha): 0
- Post-emerge Herbicidal Activity SETVI ([13]; 250 g ai/ha): 70
- Post-emerge Herbicidal Activity CASOB ([14]; 63 g ai/ha): 0
- Post-emerge Herbicidal Activity CASOB ([14]; 250 g ai/ha): 10
- Post-emerge Herbicidal Activity SORHA ([15]; 63 g ai/ha): 0
- Post-emerge Herbicidal Activity SORHA ([15]; 250 g ai/ha): 20
- Post-emerge Herbicidal Activity CHEAL ([16]; 63 g ai/ha): 50
- Post-emerge Herbicidal Activity CHEAL ([16]; 250 g ai/ha): 90
- Post-emerge Herbicidal Activity IPOHE ([17]; 63 g ai/ha): 60
- Post-emerge Herbicidal Activity IPOHE ([17]; 250 g ai/ha): 100
- Post-emerge Herbicidal Activity ECHCG ([18]; 63 g ai/ha): 0
- Post-emerge Herbicidal Activity ECHCG ([18]; 250 g ai/ha): 60
- Post-emerge Herbicidal Activity DIGSA ([19]; 63 g ai/ha): 0
- Post-emerge Herbicidal Activity DIGSA ([19]; 250 g ai/ha): 40
- Post-emerge Herbicidal Activity ABUTH ([20]; 63 g ai/ha): 95
- Post-emerge Herbicidal Activity ABUTH ([20]; 250 g ai/ha): 100
- Post-emerge Herbicidal Activity CORN (crop damage) ([21]; 63 g ai/ha): 5
- Post-emerge Herbicidal Activity CORN (crop damage) ([21]; 250 g ai/ha): 0
- Post-emerge Herbicidal Activity RICE (crop damage) ([22]; 63 g ai/ha): 0
- Post-emerge Herbicidal Activity RICE (crop damage) ([22]; 250 g ai/ha): 5
- Pre-emerge crop damage CORN (phytotoxicity rating, scale 0-100) ([23]; 63 g ai/ha): 0
- Pre-emerge crop damage CORN (phytotoxicity rating, scale 0-100) ([23]; 250 g ai/ha): 40
- Pre-emerge crop damage RICE (phytotoxicity rating, scale 0-100) ([24]; 63 g ai/ha): 0
- Pre-emerge crop damage RICE (phytotoxicity rating, scale 0-100) ([24]; 250 g ai/ha): 30
